{"source": "patent US20020106354A1", "about": "“CELLULAR AND ANIMAL MODELS FOR DISEASES ASSOCIATED WITH ALTERED MITOCHONDRIAL FUNCTION” (priority 1998, published 2002)", "key": {"INS-1 cells [1]": {"system": "INS-1 cells", "test": "Quantification of mitochondrial DNA by slot blotting (COX-I probe) in INS-1 cells treated with nucleoside analogs", "assay_type": "cell-based, rat", "conditions": "for depleted for mtDNA / depleted for mitochondrial DNA / Relative [mtDNA] After Contact w/ Antiviral / effect on mtDNA content: seven days; for effect on mtDNA content: varying concentrations", "procedure": "Media were replenished every two days. Cells were harvested at periodic intervals and assayed for insulin secretion and mtDNA content. INS-1 cells, or ρ^[…] cells generated using ddC as described above, were seeded into 12-well plates containing RPMI media supplemented as described above at 0.4×10^6 cells/well and cultured at 37° C., 5% CO2 for 2 days. Cells (0.7×10^6 cells/well) were rinsed with PBS and total cellular DNA was extracted using DNAzol (Molecular Research Center, Inc., Cincinnati, Ohio) according to the manufacturer's instructions. One hundred ng DNA from each cell preparation was slot-blotted onto a Zeta-Probe membrane (Bio-Rad, Hercules, Calif.) and crosslinked at 125 joules using a BioRad GS GeneLinker irradiation/energy source. The membranes were rinsed in hybridization buffer (5× SSC, 0.1% N-laurylsarcosine, 0.02% SDS, 1% blocking solution, Boehringer Mannheim, Indianapolis, Ind.) and hybridized overnight in the same buffer at 42° C. with the [^32P]-labeled rat COX I probe. Following hybridization, membranes were washed twice with 2X SSC/0.1% SDS and twice with 0.1× SSC/0.1% SDS and exposed to X-ray film. Mitochondrial DNA was quantified by densitometric scanning of the resulting autoradiographs. Time Course of Effects of ddC on Mitochondrial DNA Content of INS-1 Cells INS-1 cells were grown in RPMI medium supplemented with 10% fetal calf serum, 2 mM […], 100 U/ml penicillin, 100 μg/ml streptomycin, 10 mM HEPES, 1 mM sodium pyruvate, 50 μg/ml uridine, and 50 μM β-mercaptoethanol, in the presence of 10 μM ddC. After various times in culture, cells were harvested for analysis of mtDNA content. Total cellular DNA was extracted from approximately one million cells using DNAzol (Molecular Research Center, Inc. Cincinnati, Ohio) essentially according to the manufacturer's instructions. One hundred ng total DNA was analyzed by slot-blot on Zeta-Probe membranes (Bio-Rad, Hercules, Calif.). The membranes were hybridized with a [^32P]-labeled probe complementary to the mitochondrial gene encoding COXI. Autoradiograms were prepared, and the relative content of mitochondrial DNA (mtDNA) estimated by the relative densities of the autoradiographic bands."}, "INS-1 cells [2]": {"system": "INS-1 cells", "test": "Insulin secretion by mtDNA-depleted INS-1 cells (insulin radioimmunoassay)", "assay_type": "cell-based, rat", "conditions": "10 μM for 40 days", "procedure": "INS-1 cells, or ρ^[…] cells generated using ddC as described above, were seeded into 12-well plates containing RPMI media supplemented as described at 0.5×10^6 cells/well and cultured at 37° C., 5% CO2 for 2 days. Cells (0.7×10^6 cells/well were rinsed with glucose-free KRH buffer (134 mM NaCl, 4.7 mM KCl, 1.2 mM KH2PO4, 1.2 mM MgSO4, 1.0 mM CaCl2, 10 mM HEPES, 10 mM NaHCO3, 0.5% BSA), then incubated in the same buffer for 1 hr at 37° C. in a humidified 5% Co2/95% air atmosphere. Fresh KRH buffer containing 0.5 mM isobutylmethyl xanthine and the following secretagogues was added: 5 mM glucose, 10 mM glucose, 20 mM glucose, 5 mM KCl or 20 mM KCl. After an additional 1 hr at 37° C., 5% CO2 the culture supernatants were collected. Insulin concentrations in the supernatants were measured and normalized to cell number using an insulin-specific radioimmunoassay kit (ICN Biochemicals, Irvine, CA) according to the manufacturer's instructions."}, "INS-1 cells [3]": {"system": "INS-1 cells", "test": "Oxygen consumption (Clark oxygen electrode) before and after KCN", "assay_type": "cell-based, rat", "conditions": "ddC for >50 days (Rho revertants), before and after 1 uM KCN (FIG. 4)", "procedure": "Neurochem. 67:1897-1907, 1996) before and after the addition of 1 uM KCN. KCN inhibits mitochondrial respiration, primarily via its effect on Complex IV activity."}, "patients": {"system": "patients", "conditions": "cited from earlier work"}, "INS-1 cells [4]": {"system": "INS-1 cells", "test": "Lactate production in ddC-treated INS-1 cells", "assay_type": "cell-based, rat", "procedure": "Lactate production was measured in ddC-treated and control INS-1 cells at approximately day 40 and day 50 of ddC incubation. Cells were grown in 35 mm dishes. Media were replenished 16 hr before assay with normal culture media containing various amounts of glucose. The media were then collected, and lactate measured using a commercially available kit, in which lactate dehydrogenase is used to produce a fluorescent compound (Sigma, St. Louis, Mo.), essentially according to the manufacturer's instructions."}}}
{"smiles": "Cc1cn([C@H]2C[C@H](N=[N+]=[N-])[C@@H](CO)O2)c(=O)[nH]c1=O", "note": "[AZT, 3′-azido-3′ deoxythymidine]", "values": [{"measurement": "depleted for mtDNA", "setting": "INS-1 cells [1]; 5 μM", "value": "no depletion of mtDNA"}, {"measurement": "depleted for mtDNA", "setting": "INS-1 cells [1]; 10 μM", "value": 4, "unit": "%"}, {"measurement": "depleted for mtDNA", "setting": "INS-1 cells [1]; 50 μM", "value": 15, "unit": "%"}, {"measurement": "depleted for mitochondrial DNA", "setting": "INS-1 cells [1]; 100 μM", "value": "no depletion of mtDNA"}]}
{"smiles": "Nc1ccn([C@H]2CC[C@@H](CO)O2)c(=O)n1", "note": "[ddC, 2′3′-dideoxycytidine]", "values": [{"measurement": "KCl-mediated insulin secretion", "setting": "INS-1 cells [2]", "value": "remained intact"}, {"measurement": "glucose stimulated insulin secretion", "setting": "INS-1 cells [2]; 5, 10, 20 mM glucose (FIG. 3)", "value": "no glucose stimulated insulin secretion was observed"}, {"measurement": "Relative [mtDNA] After Contact w/ Antiviral", "setting": "INS-1 cells [1]; 5 μM, INS-1 cells", "value": 0.86}, {"measurement": "Relative mtDNA content per million cells", "setting": "INS-1 cells [1]; 10 μM ddC, day 3", "value": 0.46}, {"measurement": "Relative mtDNA content per million cells", "setting": "INS-1 cells [1]; 10 μM ddC, day 7", "value": 0.41}, {"measurement": "Relative mtDNA content per million cells", "setting": "INS-1 cells [1]; 10 μM ddC, day 14", "value": 0.055}, {"measurement": "Relative mtDNA content per million cells", "setting": "INS-1 cells [1]; 10 μM ddC, day 21", "value": 0.020}, {"measurement": "Relative mtDNA content per million cells", "setting": "INS-1 cells [1]; 10 μM ddC, day 40", "value": 0.0021}, {"measurement": "Relative mtDNA content per million cells", "setting": "INS-1 cells [1]; 10 μM ddC, day 60", "value": 0.550}, {"measurement": "Relative mtDNA content per million cells", "setting": "INS-1 cells [1]; 10 μM ddC, day 80", "value": 0.81}, {"measurement": "mtDNA content relative to pretreatment (day 0)", "setting": "INS-1 cells [1]; 10 μM ddC, day 80, about one million cells", "value": "about 80%"}, {"measurement": "mtDNA detectability", "setting": "INS-1 cells [1]; 10 μM, 40 days", "value": "undetectable"}, {"measurement": "Relative [mtDNA] After Contact w/ Antiviral", "setting": "INS-1 cells [1]; 10 μM, INS-1 cells", "value": 0.86}, {"measurement": "mtDNA detectability", "setting": "INS-1 cells [1]; 25 μM, after 21 days, INS-1 cells", "value": "undetectable"}, {"measurement": "Relative [mtDNA] After Contact w/ Antiviral", "setting": "INS-1 cells [1]; 50 μM, INS-1 cells", "value": 0.41}, {"measurement": "depleted for mitochondrial DNA", "setting": "INS-1 cells [1]; 100 μM", "value": 69, "unit": "%"}, {"measurement": "Relative [mtDNA] After Contact w/ Antiviral", "setting": "INS-1 cells [1]; 100 μM, INS-1 cells", "value": 0.31}, {"measurement": "IC50", "setting": "INS-1 cells [1]; Rattus norvegicus, INS1, 168 h, seven days incubation, INS-1 cells (FIG. 1), read-out: IC50 for decrease of mtDNA content", "value": "~50", "unit": "µM"}, {"measurement": "effect on mtDNA content", "setting": "INS-1 cells [1]; INS-1 cells (FIG. 1)", "value": "decreased mtDNA content in a dose-dependent fashion"}, {"measurement": "mitochondrial-mediated respiration (oxygen consumption)", "setting": "INS-1 cells [3]", "value": "mitochondrial-mediated respiration (Complex IV activity) was present"}, {"measurement": "side-effect of treatment: peripheral neuropathy", "setting": "patients", "value": "axonal peripheral neuropathy"}, {"measurement": "side-effect of treatment: neuropathy", "setting": "patients; particularly diabetics", "value": "toxic and painful neuropathy"}, {"measurement": "lactate produced relative to control (untreated) cells", "setting": "INS-1 cells [4]; 40-day ddC-treated cells, 25 or 50 mM glucose", "value": "> 5", "unit": "times"}, {"measurement": "lactate produced compared with control (untreated) cells", "setting": "INS-1 cells [4]; after more than about 50 days ddC", "value": "comparable amounts of lactate"}]}
{"smiles": "O=c1[nH]cnc2c1ncn2[C@H]1CC[C@@H](CO)O1", "note": "[ddI, 2′3′-dideoxyinosine]", "values": [{"measurement": "depleted for mitochondrial DNA", "setting": "INS-1 cells [1]; 100 μM", "value": 80, "unit": "%"}, {"measurement": "effect on mtDNA content", "setting": "INS-1 cells [1]; INS-1 cells (FIG. 1)", "value": "decreased mtDNA content in a dose-dependent fashion"}]}
{"smiles": "O=c1[nH]c(=O)n([C@@H]2O[C@H](CO)[C@@H](O)[C@@H]2F)cc1I", "note": "[FIAU, fialuridine]", "values": [{"measurement": "Relative [mtDNA] After Contact w/ Antiviral", "setting": "INS-1 cells [1]; 10 μM, INS-1 cells", "value": 0.66}, {"measurement": "depleted for mitochondrial DNA", "setting": "INS-1 cells [1]; 100 μM", "value": 61, "unit": "%"}, {"measurement": "Relative [mtDNA] After Contact w/ Antiviral", "setting": "INS-1 cells [1]; 100 μM, INS-1 cells", "value": 0.39}]}
{"smiles": "Cc1cn([C@H]2C=C[C@@H](CO)O2)c(=O)[nH]c1=O", "note": "[d4T, 2′3′-didehydro-3-deoxythymidine]", "values": [{"measurement": "Relative [mtDNA] After Contact w/ Antiviral", "setting": "INS-1 cells [1]; 10 μM, INS-1 cells", "value": 0.98}, {"measurement": "Relative [mtDNA] After Contact w/ Antiviral", "setting": "INS-1 cells [1]; 50 μM, INS-1 cells", "value": 0.56}, {"measurement": "depleted for mitochondrial DNA", "setting": "INS-1 cells [1]; 100 μM", "value": 95, "unit": "%"}, {"measurement": "Relative [mtDNA] After Contact w/ Antiviral", "setting": "INS-1 cells [1]; 100 μM, INS-1 cells", "value": 0.05}, {"measurement": "effect on mtDNA content", "setting": "INS-1 cells [1]; INS-1 cells (FIG. 1)", "value": "decreased mtDNA content in a dose-dependent fashion"}, {"measurement": "side-effect of treatment: peripheral neuropathy", "setting": "patients", "value": "axonal peripheral neuropathy"}]}
